What was measured:
[1] = Solubility of amphiphilic compound in pure water; assay type: physicochemical
[2] = Compatibility / phase separation of amphiphilic compound with amphiphilic surfactant system in water (microscope, visual appearance); assay type: physicochemical; conditions: concentrations as in the label, SLES alone at 12 wt. %
Experimental: Further, in certain embodiments, the amphiphilic compound forms a separate phase from the amphiphilic surfactant system when the amphiphilic surfactant system and the amphiphilic compound are combined in water. In this respect, the separate phase is determined by combining from 5 wt. % up to 70 wt. % of a total concentration of the amphiphilic compound and the amphiphilic surfactant system, based on a total weight of the amphiphilic compound, the amphiphilic surfactant system, and water totaling 100 wt. %, with the ratio of the amphiphilic surfactant system to the amphiphilic compound ranging from 99:1 to 50:50, preferably from 90:10 to 60:40, more preferably from 80:20 to 70:30, and determining whether any objects larger than 150 nm are observed using a conventional microscope, preferably an Olympus IX71 conventional microscope, equipped with 100× oil objective.
With respect to the amphiphilic compounds being immiscible with a combination of the amphiphilic surfactant system and water, the amphiphilic compounds can form a separate phase from the amphiphilic surfactant system in water at 25° C. […]
The interfacial tension was measured using Sigma 701 tensiometer, and compatibility was observed using Olympus IX71 conventional microscope equipped with 100× oil objective, as described above.

| solubility in water [1] [wt %)] | Compound | other results |
| --- | --- | --- |
| < 1 | CCCCCCCCCCCCCCCCCC(=O)OCC[N+](C)(C)CCOC(=O)CCCCCCCCCCCCCCCCC.[Cl-] [DEEDMAC, Dimethylbis[2-[(1-oxooctadecyl)oxy]ethyl]ammonium chloride] | – |
| – | CCCCCCCCCC[N+](C)(C)CCCCCCCCCC.[Cl-] [Maquat 4450, didecyldimethylammonium chloride] | solubility in water (in words) [1]: high water solubility |
| < 1 | CCCCCCCCCCCCCOC(=O)CC(C(=O)OCCCCCCCCCCCCC)S(=O)(=O)O.[Na] (stereo not shown) [Sodium bis(tridecyl) sulfosuccinate] | – |
| – | sodium laureth sulfate [sodium laureth sulfate (SLES)] | visual appearance (FIG. 2) [2]: transparent, and therefore, no phase separation |
